According to US20120129763A1, “NOVEL SEMI-SYNTHETIC GLYCOPEPTIDES AS ANTIBACTERIAL AGENTS” (BIOMARIN PHARMACEUTICAL INC., priority 2007, published 2012):
≈ marks a conversion by molar mass, not a printed value.

Legend:
Type in all cases: cell-based
Conditions in all cases: clinical isolate, Mueller-Hinton broth
[1] = system: Enterococcus faecium 750 (vancomycin sensitive); test: Broth microdilution MIC, EFCM 750
Description: (§1) Antibacterial activity in vitro is investigated by broth microdilution method in Meuller-Hinton broth as recommended by NCCLS. All strains tested are clinical isolates either sensitive or resistant to natural glycopeptides. MIC values were determined using the CLSI-recommended broth microdilution procedure (Clinical and Laboratory Standards Institute, Methods for Dilution Antimicrobial Susceptibility Tests for Bacteria That Grow Aerobically; Approved Standard-Seventh Edition). Automated liquid handlers (Multidrop 384, Labsystems, Helsinki, Finland; Biomek 2000 and Multimek 96, Beckman Coulter, Fullerton Calif.) were used to conduct serial dilutions and liquid transfers.

[2] = system: Enterococcus faecalis 848 (VRE); test: Broth microdilution MIC, EFC 848
Description: as §1

[3] = system: Staphylococcus aureus 757 (MRSA); test: Broth microdilution MIC, SA 757
Description: as §1

[4] = system: Staphylococcus aureus 100 (MSSA); test: Broth microdilution MIC, SA 100
Description: as §1

[5] = system: Staphylococcus epidermidis 831 (MRSE); test: Broth microdilution MIC, SE 831; parameters: unit not given beside the values
Description: as §1

[6] = system: Streptococcus pyogenes 712 (penicillin sensitive); test: Broth microdilution MIC, SPYO 712
Description: as §1

[7] = system: Staphylococcus aureus 2012 (VISA); test: Broth microdilution MIC, SA 2012
Description: as §1

[8] = system: Enterococcus faecalis 101 (vancomycin sensitive); test: Broth microdilution MIC, EFC 101
Description: as §1

[9] = system: Streptococcus pneumoniae 1195 (penicillin sensitive); test: Broth microdilution MIC, SPNE 1195
Description: as §1

[10] = system: Enterococcus faecium 752 (VRE); test: Broth microdilution MIC, EFCM 752
Description: as §1

[11] = system: Staphylococcus epidermidis 835 (MSSE); test: Broth microdilution MIC, SE 835; parameters: unit not given beside the values
Description: as §1

`CCCCCCCCNC(=O)NC(=O)C[C@@H]1NC(=O)[C@H](NC(=O)[C@@H](CC(C)C)NC)[C@H](O)c2ccc(c(Cl)c2)Oc2cc3cc(c2OC2OC(CO)C(O)C(O)C2O)Oc2ccc(cc2Cl)[C@@H](O)[C@H]2NC(=O)[C@H](NC(=O)[C@@H]3NC1=O)c1ccc(O)c(c1)-c1c(O)cc(O)cc1[C@@H](C(=O)NC1C3CC4CC(C3)CC1C4)NC2=O` (stereo partly drawn) [Compound 29] was tested, and the MIC, E FCM 750 [1] was 0.5 µg/mL (≈ 0.314 µM), the MIC, E FC 848 [2] was 2 µg/mL (≈ 1.25 µM) and the MIC, SA 757 [3] was 1 µg/mL (≈ 0.627 µM). The MIC, SA 100 [4] was 2 µg/mL (≈ 1.25 µM), the “MIC, SE 831” value [5] was 0.5 and the MIC, S PYO 712 [6] was 0.12 µg/mL (≈ 0.0753 µM). For the same compound, the MIC, SA 2012 [7] was 1 µg/mL (≈ 0.627 µM), the MIC, E FC 101 [8] was 1 µg/mL (≈ 0.627 µM) and the MIC, S PNE 1195 [9] was 0.12 µg/mL (≈ 0.0753 µM). For the same compound, the MIC, E FCM 752 [10] was 2 µg/mL (≈ 1.25 µM) and the “MIC, SE 835” value [11] was 1.

`CN[C@H](CC(C)C)C(=O)N[C@H]1C(=O)N[C@@H](CC(=O)NC(=O)N[C@@H](C)c2ccccc2)C(=O)N[C@H]2C(=O)N[C@@H]3C(=O)N[C@H](C(=O)N[C@H](C(=O)NC4C5CC6CC(C5)CC4C6)c4cc(O)cc(O)c4-c4cc3ccc4O)[C@H](O)c3ccc(c(Cl)c3)Oc3cc2cc(c3OC2O[C@H](COC(=O)N[C@@H](C)c3ccccc3)[C@@H](O)[C@H](O)[C@H]2O)Oc2ccc(cc2Cl)[C@H]1O` (stereo partly drawn) [Compound 75] was tested, and the MIC, E FCM 750 [1] was 0.5 µg/mL (≈ 0.288 µM), the MIC, E FC 848 [2] was 2 µg/mL (≈ 1.15 µM) and the MIC, SA 757 [3] was 2 µg/mL (≈ 1.15 µM). For the same compound, the MIC, SA 100 [4] was 4 µg/mL (≈ 2.31 µM), the “MIC, SE 831” value [5] was 1 and the MIC, S PYO 712 [6] was 0.25 µg/mL (≈ 0.144 µM). The MIC, SA 2012 [7] was 4 µg/mL (≈ 2.31 µM), the MIC, E FC 101 [8] was 2 µg/mL (≈ 1.15 µM) and the MIC, S PNE 1195 [9] was 1 µg/mL (≈ 0.577 µM). For the same compound, the MIC, E FCM 752 [10] was 2 µg/mL (≈ 1.15 µM) and the “MIC, SE 835” value [11] was 2.

With `CN[C@H](CC(C)C)C(=O)N[C@H]1C(=O)N[C@@H](CC(=O)NC(=O)N[C@@H](C)c2ccccc2)C(=O)N[C@H]2C(=O)N[C@@H]3C(=O)N[C@H](C(=O)N[C@H](C(=O)NC4C5CC6CC(C5)CC4C6)c4cc(O)cc(O)c4-c4cc3ccc4O)[C@H](O)c3ccc(c(Cl)c3)Oc3cc2cc(c3OC2O[C@H](CO)[C@@H](O)[C@H](O)[C@H]2O)Oc2ccc(cc2Cl)[C@H]1O` (stereo partly drawn) [Compound 76] the MIC, E FCM 750 [1] was 0.5 µg/mL (≈ 0.315 µM), the MIC, E FC 848 [2] was 8 µg/mL (≈ 5.04 µM) and the MIC, SA 757 [3] was 2 µg/mL (≈ 1.26 µM). For the same compound, the MIC, SA 100 [4] was 2 µg/mL (≈ 1.26 µM), the “MIC, SE 831” value [5] was 1 and the MIC, S PYO 712 [6] was 0.06 µg/mL (≈ 0.0378 µM). For the same compound, the MIC, SA 2012 [7] was 4 µg/mL (≈ 2.52 µM), the MIC, E FC 101 [8] was 2 µg/mL (≈ 1.26 µM) and the MIC, S PNE 1195 [9] was 0.25 µg/mL (≈ 0.158 µM). For the same compound, the MIC, E FCM 752 [10] was 8 µg/mL (≈ 5.04 µM) and the “MIC, SE 835” value [11] was 1.
